# Entries after “also recorded” stand apart in the source; their conditions may differ. Read-outs that look alike come from different tables or passages of the source.
# Experiments:
# in vivo = conditions: rat
# Description: (§1) Sprague-Dawley rats of both sexes (5 male+5 female) were used for each experimental group.
# [1] = rats
# Description: as §1
# [2] = tested on: isolated guinea pig atria; test: Isolated guinea pig atria: force and frequency of spontaneous contractions; set-up: species or system guinea pig (Hartley-Dunkin); conditions: for inhibition at 10 µM / activation at 10 µM / IC25: Cavia porcellus; for inhibition at 10 µM: read-out: negative chronotropic effect; for activation at 10 µM: read-out: positive inotropic effect; for activity on force and frequency of the contractions (in words) / IC25: isolated guinea pig atria; for IC25: n = 6
# Procedure: 1. The atria taken from Hartley-Dunkin guinea pigs of average weight 400-450 g were placed in an isolated organ bath of 15 ml containing a physiological Krebs solution (J. C. Doxey et al., Br. J. Pharmac. 78, 498, 1983) at a temperature of 30°±0.5° and oxygenated by means of a gaseous mixture composed of 95% of O2 and 5% of CO2. The force and frequency of the spontaneous contractions (T. De Gubareff and W. Sleaton Jr., J. Pharm. Exp. Ther., 148, 202, 1965) were recorded by means of an isometric force transducer. The concentration of product required to reduce the contraction force and frequency by 25% (IC25) and the relevant pIC25 were calculated.
# isolated rat portal vein = test: Isolated rat portal vein: force of spontaneous contraction; set-up: species or system rat (Sprague-Dawley); conditions: for selectivity, isolated vessels vs atria (in words): comparison of rat portal vein with guinea pig atria; for inhibition of contraction force (in words) / IC50: isolated rat portal vein; for IC50: 50% reduction of contraction force, n = 6, read-out: Contraction force pIC50 (converted)
# Description: 2. 2-3 cm strips of portal vein were taken from Sprague-Dawley rats of 220-250 g weight.
# [3] = Haemodynamics in anaesthetized rats; assay type: in vivo, rat (Sprague-Dawley); conditions: for change in BP (systemic arterial pressure) / change in HR (heart rate) / change in LVP (left intraventricular pressure) / change in dp/dt: n = 6
# Procedure: Male Sprague-Dawley rats of average weight 350-400 g, anaesthetized with sodium pentobarbital in an intraperitoneal dose of 60 mg/kg, underwent cannulation for measuring the following parameters: systemic arterial pressure (BP), heart rate (HR) left intraventricular pressure (LVP) and dp/dt.
# After recording of the baseline values, the substances were injected by the intravenous route within a time of 30 seconds. The changes in the parameters indicated above were measured at times of 0.5-2-10 and 20 minutes.
compound,measurement,setting,value
"COc1ccc([C@@H]2Sc3ccccc3N(CCN(C)C)C(=O)[C@@H]2OC(=O)CCC(=O)O[C@H]2C(=O)N(CCN(C)C)c3ccccc3S[C@H]2c2ccc(OC)cc2)cc1 (relative stereo) [Ib, 3,3'-[(1,4-dioxo-1,4-butanediyl)-bis(oxy)] bis[(+)-cis-5-[2-(dimethylamino)ethyl]-2,3-dihydro-2-(4-methoxyphenyl)-1,5-benzothiazepin-4(5H)-one]]",LD50 at 336 h,in vivo; ip,600 mg/kg
same,LD50 at 336 h,in vivo; po,881 mg/kg
same,"toxicity versus diltiazem, intraperitoneal (in words)",[1],less toxic than the reference product
same,"toxicity versus diltiazem, oral (in words)",[1],LD50 comparable with that of diltiazem
same,inhibition at 10 µM,[2],5%
same,activation at 10 µM,[2],12%
same,activity on force and frequency of the contractions (in words),[2],virtually inactive; also recorded: free of the negative chronotropic and inotropic effects
same,"selectivity, isolated vessels vs atria (in words)",isolated rat portal vein,selective activity on the isolated vessels
same,inhibition of contraction force (in words),isolated rat portal vein,antagonize the contraction force in a dose-dependent manner; also recorded: significantly inhibit the contraction force
same,IC50,isolated rat portal vein,2340 nM
"COc1ccc([C@@H]2Sc3ccccc3N(CCN(C)C)C(=O)[C@@H]2OC(C)=O)cc1 [Diltiazem, (+)-Cis-5-[2-(dimethylamino)ethyl]-3-acetoxy-2,3-dihydro-2-(4-methoxyphenyl)-1,5-benzothiazepin-4(5H)-one, reference compound]",change in BP (systemic arterial pressure),"[3]; 0.35 μmol/kg i.v., 0.5 minutes",-21 mmHg
same,change in HR (heart rate),"[3]; 0.35 μmol/kg i.v., 0.5 minutes",-4 bpm
same,change in LVP (left intraventricular pressure),"[3]; 0.35 μmol/kg i.v., 0.5 minutes",-18 mmHg
same,change in dp/dt,"[3]; 0.35 μmol/kg i.v., 0.5 minutes",-150 mmHg/sec
same,change in BP (systemic arterial pressure),"[3]; 0.35 μmol/kg i.v., 2 minutes",-1 mmHg
same,change in HR (heart rate),"[3]; 0.35 μmol/kg i.v., 2 minutes",+6 bpm
same,change in LVP (left intraventricular pressure),"[3]; 0.35 μmol/kg i.v., 2 minutes",-1 mmHg
same,change in dp/dt,"[3]; 0.35 μmol/kg i.v., 2 minutes",-25 mmHg/sec
same,change in BP (systemic arterial pressure),"[3]; 0.35 μmol/kg i.v., 10 minutes",+6 mmHg
same,change in HR (heart rate),"[3]; 0.35 μmol/kg i.v., 10 minutes",+10 bpm
same,change in LVP (left intraventricular pressure),"[3]; 0.35 μmol/kg i.v., 10 minutes",+2 mmHg
same,change in dp/dt,"[3]; 0.35 μmol/kg i.v., 10 minutes",-17 mmHg/sec
same,change in BP (systemic arterial pressure),"[3]; 0.35 μmol/kg i.v., 20 minutes",+1 mmHg
same,change in HR (heart rate),"[3]; 0.35 μmol/kg i.v., 20 minutes",+3 bpm
same,change in LVP (left intraventricular pressure),"[3]; 0.35 μmol/kg i.v., 20 minutes",-5 mmHg
same,change in dp/dt,"[3]; 0.35 μmol/kg i.v., 20 minutes",-183 mmHg/sec
same,effect on all observed parameters (in words),[3]; 0.7 μmol/kg i.v.,significantly reduces all the observed parameters
same,effect on heart rate and contractility (in words),[3]; 0.7 μmol/kg i.v.,significant cardiodepressive effect
same,change in BP (systemic arterial pressure),"[3]; 0.70 μmol/kg i.v., 0.5 minutes",-52 mmHg
same,change in HR (heart rate),"[3]; 0.70 μmol/kg i.v., 0.5 minutes",-83 bpm
same,change in LVP (left intraventricular pressure),"[3]; 0.70 μmol/kg i.v., 0.5 minutes",-46 mmHg
same,change in dp/dt,"[3]; 0.70 μmol/kg i.v., 0.5 minutes",-658 mmHg/sec
same,change in BP (systemic arterial pressure),"[3]; 0.70 μmol/kg i.v., 2 minutes",-34 mmHg
same,change in HR (heart rate),"[3]; 0.70 μmol/kg i.v., 2 minutes",-99 bpm
same,change in LVP (left intraventricular pressure),"[3]; 0.70 μmol/kg i.v., 2 minutes",-24 mmHg
same,change in dp/dt,"[3]; 0.70 μmol/kg i.v., 2 minutes",-375 mmHg/sec
same,change in BP (systemic arterial pressure),"[3]; 0.70 μmol/kg i.v., 10 minutes",-16 mmHg
same,change in HR (heart rate),"[3]; 0.70 μmol/kg i.v., 10 minutes",-5 bpm
same,change in LVP (left intraventricular pressure),"[3]; 0.70 μmol/kg i.v., 10 minutes",-4 mmHg
same,change in dp/dt,"[3]; 0.70 μmol/kg i.v., 10 minutes",-108 mmHg/sec
same,change in BP (systemic arterial pressure),"[3]; 0.70 μmol/kg i.v., 20 minutes",+9 mmHg
same,change in HR (heart rate),"[3]; 0.70 μmol/kg i.v., 20 minutes",+7 bpm
same,change in LVP (left intraventricular pressure),"[3]; 0.70 μmol/kg i.v., 20 minutes",-7 mmHg
same,change in dp/dt,"[3]; 0.70 μmol/kg i.v., 20 minutes",-92 mmHg/sec
same,IC25,"[2]; 25% reduction of contraction force, read-out: Contraction force pIC25 (converted)",513 nM
same,IC25,"[2]; 25% reduction of contraction frequency, read-out: Frequency pIC25 (converted)",355 nM
same,activity on force and frequency of the contractions (in words),[2],significant activity
same,IC50,isolated rat portal vein,813 nM
"COc1ccc([C@@H]2Sc3ccccc3N(CCN(C)C)C(=O)[C@@H]2OC(=O)/C=C/C(=O)O[C@H]2C(=O)N(CCN(C)C)c3ccccc3S[C@H]2c2ccc(OC)cc2)cc1 [Ia, 3,3'-[(2E)-(1,4-dioxo-1,4-butenediyl)-bis(oxy)]bis[(+)-cis-5-[2-(dimethylamino)ethyl]-2,3-dihydro-2-(4-methoxyphenyl)-1,5-benzothiazepin-4-(5H)-one]]",LD50 at 336 h,in vivo; ip,250 mg/kg
same,LD50 at 336 h,in vivo; po,> 1500 mg/kg
same,change in BP (systemic arterial pressure),"[3]; 0.35 μmol/kg i.v., 0.5 minutes",-32 mmHg
same,change in HR (heart rate),"[3]; 0.35 μmol/kg i.v., 0.5 minutes",-19 bpm
same,change in LVP (left intraventricular pressure),"[3]; 0.35 μmol/kg i.v., 0.5 minutes",-29 mmHg
same,change in dp/dt,"[3]; 0.35 μmol/kg i.v., 0.5 minutes",-31 mmHg/sec
same,change in BP (systemic arterial pressure),"[3]; 0.35 μmol/kg i.v., 2 minutes",-16 mmHg
same,change in HR (heart rate),"[3]; 0.35 μmol/kg i.v., 2 minutes",-19 bpm
same,change in LVP (left intraventricular pressure),"[3]; 0.35 μmol/kg i.v., 2 minutes",-11 mmHg
same,change in dp/dt,"[3]; 0.35 μmol/kg i.v., 2 minutes",-20 mmHg/sec
same,change in BP (systemic arterial pressure),"[3]; 0.35 μmol/kg i.v., 10 minutes",+2 mmHg
same,change in HR (heart rate),"[3]; 0.35 μmol/kg i.v., 10 minutes",-9 bpm
same,change in LVP (left intraventricular pressure),"[3]; 0.35 μmol/kg i.v., 10 minutes",-2 mmHg
same,change in dp/dt,"[3]; 0.35 μmol/kg i.v., 10 minutes",-67 mmHg/sec
same,change in BP (systemic arterial pressure),"[3]; 0.35 μmol/kg i.v., 20 minutes",-8 mmHg
same,change in HR (heart rate),"[3]; 0.35 μmol/kg i.v., 20 minutes",-14 bpm
same,change in LVP (left intraventricular pressure),"[3]; 0.35 μmol/kg i.v., 20 minutes",-11 mmHg
same,change in dp/dt,"[3]; 0.35 μmol/kg i.v., 20 minutes",-25 mmHg/sec
same,effect on heart rate and contractility (in words),[3]; 0.7 μmol/kg i.v.,without altering the heart rate and contractility parameters
same,hypotensive activity (in words),[3]; 0.7 μmol/kg i.v.,significant and lasting hypotensive activity
same,change in BP (systemic arterial pressure),"[3]; 0.70 μmol/kg i.v., 0.5 minutes",-32 mmHg
same,change in HR (heart rate),"[3]; 0.70 μmol/kg i.v., 0.5 minutes",-19 bpm
same,change in LVP (left intraventricular pressure),"[3]; 0.70 μmol/kg i.v., 0.5 minutes",-33 mmHg
same,change in dp/dt,"[3]; 0.70 μmol/kg i.v., 0.5 minutes",-15 mmHg/sec
same,change in BP (systemic arterial pressure),"[3]; 0.70 μmol/kg i.v., 2 minutes",-33 mmHg
same,change in HR (heart rate),"[3]; 0.70 μmol/kg i.v., 2 minutes",-11 bpm
same,change in LVP (left intraventricular pressure),"[3]; 0.70 μmol/kg i.v., 2 minutes",-32 mmHg
same,change in dp/dt,"[3]; 0.70 μmol/kg i.v., 2 minutes",-20 mmHg/sec
same,change in BP (systemic arterial pressure),"[3]; 0.70 μmol/kg i.v., 10 minutes",-22 mmHg
same,change in HR (heart rate),"[3]; 0.70 μmol/kg i.v., 10 minutes",-13 bpm
same,change in LVP (left intraventricular pressure),"[3]; 0.70 μmol/kg i.v., 10 minutes",-32 mmHg
same,change in dp/dt,"[3]; 0.70 μmol/kg i.v., 10 minutes",-16 mmHg/sec
same,change in BP (systemic arterial pressure),"[3]; 0.70 μmol/kg i.v., 20 minutes",-25 mmHg
same,change in HR (heart rate),"[3]; 0.70 μmol/kg i.v., 20 minutes",-9 bpm
same,change in LVP (left intraventricular pressure),"[3]; 0.70 μmol/kg i.v., 20 minutes",-32 mmHg
same,change in dp/dt,"[3]; 0.70 μmol/kg i.v., 20 minutes",-20 mmHg/sec
same,selectivity of action (in words),[3]; conclusion from in vivo and in vitro results,selective action on the smooth vessel musculature
same,"toxicity versus diltiazem, intraperitoneal (in words)",[1],less toxic than the reference product
same,"toxicity versus diltiazem, oral (in words)",[1],less toxic
same,inhibition at 10 µM,[2],5%
same,activation at 10 µM,[2],6%
same,activity on force and frequency of the contractions (in words),[2],virtually inactive; also recorded: free of the negative chronotropic and inotropic effects
same,"selectivity, isolated vessels vs atria (in words)",isolated rat portal vein,selective activity on the isolated vessels
same,inhibition of contraction force (in words),isolated rat portal vein,antagonize the contraction force in a dose-dependent manner; also recorded: significantly inhibit the contraction force
same,IC50,isolated rat portal vein,3980 nM
